From PubChem BioAssay AID1745844 (Carcinogenic Potency Database (CPDB), 2022)
“And” between values parts separate entries of the source, which are not always exact repeats. Identical values can stand only once. The source made the active and inactive calls. The rule behind the calls is not given here.

Tested on: rodent lifetime carcinogenesis bioassay, tumor incidence TD50
Assay: chronic cancer bioassays in animals – CPDB, compiled studies (AID 1745844)

Structure (SMILES): Cc1nc(N)cc2[nH]c3ccccc3c12
- TD50 (mouse, strain CDF1, females, in feed, site: liver, lesion: hepatocellular carcinoma, dosed 88 weeks, study length 88 weeks): 6.81 mg/kg/day
- TD50 (mouse, strain CDF1, males, in feed, site: liver, lesion: hepatocellular carcinoma, dosed 88 weeks, study length 88 weeks): 88.2 mg/kg/day
- TD50 (mouse, strain CDF1, males, in feed, site: liver, lesion: several types, types named in the paper, dosed 88 weeks, study length 88 weeks): 83.2 mg/kg/day
- TD50 (mouse, strain CDF1, males, in feed, site: lung, lesion: adenocarcinoma, dosed 88 weeks, study length 88 weeks): 81.1 mg/kg/day
- TD50 (mouse, strain CDF1, males, in feed, site: lung, lesion: adenoma, dosed 88 weeks, study length 88 weeks): 224 mg/kg/day
- TD50 (rat, strain ACI, females, in feed, site: ileum, lesion: adenoma, dosed 124 weeks, study length 124 weeks): 41.4 mg/kg/day
- TD50 (rat, strain ACI, females, in feed, site: jejunum, lesion: adenocarcinoma, dosed 124 weeks, study length 124 weeks): 41.4 mg/kg/day
- TD50 (rat, strain ACI, females, in feed, site: liver, lesion: hemangioendothelial sarcoma, dosed 124 weeks, study length 124 weeks): 41.4 mg/kg/day
- TD50 (rat, strain ACI, females, in feed, site: liver, lesion: neoplastic nodule, dosed 124 weeks, study length 124 weeks): 4.43 mg/kg/day
- TD50 (rat, strain ACI, females, in feed, site: liver, lesion: several types, types named in the paper, dosed 124 weeks, study length 124 weeks): 4.43 mg/kg/day
- TD50 (rat, strain F344/DuCrj, females, in feed, site: all sites, lesion: malignant lymphoma, dosed 112 weeks, study length 112 weeks): 29 mg/kg/day
- TD50 (rat, strain F344/DuCrj, females, in feed, site: clitoral gland, lesion: adenocarcinoma, dosed 112 weeks, study length 112 weeks): 75.5 mg/kg/day
- TD50 (rat, strain F344/DuCrj, females, in feed, site: clitoral gland, lesion: adenoma, dosed 112 weeks, study length 112 weeks): 12.8 mg/kg/day
- TD50 (rat, strain F344/DuCrj, females, in feed, site: clitoral gland, lesion: several types, types named in the paper, dosed 112 weeks, study length 112 weeks): 9.42 mg/kg/day
- TD50 (rat, strain F344/DuCrj, females, in feed, site: liver, lesion: hepatocellular adenoma, dosed 112 weeks, study length 112 weeks): 74.3 mg/kg/day
- TD50 (rat, strain F344/DuCrj, females, in feed, site: mammary gland, lesion: adenoma, dosed 112 weeks, study length 112 weeks): 76.2 mg/kg/day
- TD50 (rat, strain F344/DuCrj, females, in feed, site: mammary gland, lesion: several types, types named in the paper, dosed 112 weeks, study length 112 weeks): 9.78 mg/kg/day and 11.5 mg/kg/day
- TD50 (rat, strain F344/DuCrj, females, in feed, site: uterus, lesion: endometrial stromal polyp, dosed 112 weeks, study length 112 weeks): 3.6 mg/kg/day
- TD50 (rat, strain F344/DuCrj, males, in feed, site: liver, lesion: hepatocellular adenoma, dosed 112 weeks, study length 112 weeks): 10.7 mg/kg/day
- TD50 (rat, strain F344/DuCrj, males, in feed, site: mammary gland, lesion: several types, types named in the paper, dosed 112 weeks, study length 112 weeks): 8.43 mg/kg/day
- TD50 (rat, strain F344/DuCrj, males, in feed, site: urinary bladder, lesion: several types, types named in the paper, dosed 112 weeks, study length 112 weeks): 9.72 mg/kg/day
- TD50 (rat, strain F344/DuCrj, males, in feed, site: urinary bladder, lesion: transitional-cell carcinoma, dosed 112 weeks, study length 112 weeks): 59.9 mg/kg/day
- TD50 (rat, strain F344/DuCrj, males, in feed, site: urinary bladder, lesion: transitional-cell papilloma, dosed 112 weeks, study length 112 weeks): 12.3 mg/kg/day

Structure (SMILES): C/C1=C\C=C(\C(C)C)[C@@H](O)C/C(C)=C/CC/C(C)=C/CC1
- carcinogen call (mouse, strain C3H/HeN, males, in feed, site: liver, lesion: hepatoma, dosed 65 weeks, study length 65 weeks): negative (inactive)

Structure (SMILES): C[C@](N)(Cc1ccc(O)c(O)c1)C(=O)O
- carcinogen call (mouse, strain B6C3F1, females, in feed, site: any site (literature study), lesion: several types, types named in the paper, dosed 103 weeks, study length 104 weeks): negative (inactive)
- TD50 (mouse, strain B6C3F1, females, in feed, site: lung, lesion: alveolar/bronchiolar adenoma + alveolar/bronchiolar carcinoma, dosed 103 weeks, study length 104 weeks): 25000 mg/kg/day
- TD50 (mouse, strain B6C3F1, males, in feed, site: kidney, lesion: tubular-cell adenoma + tubular-cell adenocarcinoma, dosed 103 weeks, study length 104 weeks): 20100 mg/kg/day
- TD50 (rat, strain Fischer 344, females, in feed, site: any site (literature study), lesion: several types, types named in the paper, dosed 103 weeks, study length 104 weeks): 592 mg/kg/day (inactive)
- carcinogen call (rat, strain Fischer 344, males, in feed, site: any site (literature study), lesion: several types, types named in the paper, dosed 103 weeks, study length 104 weeks): negative (inactive)

Structure (SMILES): Nc1nc(N)c2nc(-c3ccccc3)c(N)nc2n1
- TD50 (mouse, strain B6C3F1, females, in feed, site: any site (literature study), lesion: several types, types named in the paper, dosed 104 weeks, study length 104 weeks): 132 mg/kg/day and 64.4 mg/kg/day
- TD50 (mouse, strain B6C3F1, females, in feed, site: liver, lesion: hepatocellular adenoma + hepatoblastoma + hepatocellular carcinoma, dosed 104 weeks, study length 104 weeks): 51.3 mg/kg/day and 45.3 mg/kg/day
- TD50 (mouse, strain B6C3F1, females, in feed, site: liver, lesion: hepatocellular adenoma + hepatocellular carcinoma, dosed 104 weeks, study length 104 weeks): 51.3 mg/kg/day and 45.3 mg/kg/day
- TD50 (mouse, strain B6C3F1, females, in feed, site: liver, lesion: hepatocellular adenoma, dosed 104 weeks, study length 104 weeks): 46 mg/kg/day and 45.7 mg/kg/day
- TD50 (mouse, strain B6C3F1, males, in feed, site: Harderian gland, lesion: adenoma, dosed 104 weeks, study length 104 weeks): 235 mg/kg/day
- TD50 (mouse, strain B6C3F1, males, in feed, site: any site (literature study), lesion: several types, types named in the paper, dosed 104 weeks, study length 104 weeks): 205 mg/kg/day and 86.7 mg/kg/day
- TD50 (mouse, strain B6C3F1, males, in feed, site: liver, lesion: hepatocellular adenoma + hepatoblastoma + hepatocellular carcinoma, dosed 104 weeks, study length 104 weeks): 169 mg/kg/day and 61.2 mg/kg/day
- TD50 (mouse, strain B6C3F1, males, in feed, site: liver, lesion: hepatocellular adenoma + hepatocellular carcinoma, dosed 104 weeks, study length 104 weeks): 162 mg/kg/day and 61.2 mg/kg/day
- TD50 (mouse, strain B6C3F1, males, in feed, site: liver, lesion: hepatocellular adenoma, dosed 104 weeks, study length 104 weeks): 54.8 mg/kg/day
- TD50 (mouse, strain B6C3F1, males, in feed, site: liver, lesion: hepatocellular carcinoma, dosed 104 weeks, study length 104 weeks): 227 mg/kg/day
- TD50 (mouse, strain B6C3F1, males, in feed, site: lung, lesion: alveolar/bronchiolar adenoma + alveolar/bronchiolar carcinoma, dosed 104 weeks, study length 104 weeks): 233 mg/kg/day and 265 mg/kg/day
- carcinogen call (rat, strain Fischer 344, females, in feed, site: any site (literature study), lesion: several types, types named in the paper, dosed 104 weeks, study length 104 weeks): negative (inactive)
- TD50 (rat, strain Fischer 344, females, in feed, site: liver, lesion: hepatocellular adenoma + hepatoblastoma + hepatocellular carcinoma, dosed 104 weeks, study length 104 weeks): 520 mg/kg/day
- TD50 (rat, strain Fischer 344, males, in feed, site: liver, lesion: hepatocellular adenoma + hepatoblastoma + hepatocellular carcinoma, dosed 104 weeks, study length 104 weeks): 11.8 mg/kg/day
- TD50 (rat, strain Fischer 344, males, in feed, site: liver, lesion: hepatocellular adenoma, dosed 104 weeks, study length 104 weeks): 11.8 mg/kg/day

Structure (SMILES): NNCCc1ccccc1
- TD50 (mouse, strain Swiss albino, females, in drinking water, site: blood vessels, lesion: angiosarcoma, dosed 93 weeks, study length 93 weeks): 20.4 mg/kg/day
- TD50 (mouse, strain Swiss albino, females, in drinking water, site: blood vessels, lesion: several types, types named in the paper, dosed 93 weeks, study length 93 weeks): 14.6 mg/kg/day
- TD50 (mouse, strain Swiss albino, females, in drinking water, site: fat, lesion: angiosarcoma, dosed 93 weeks, study length 93 weeks): 23.7 mg/kg/day
- TD50 (mouse, strain Swiss albino, females, in drinking water, site: liver, lesion: several types, types named in the paper, dosed 93 weeks, study length 93 weeks): 278 mg/kg/day
- TD50 (mouse, strain Swiss albino, females, in drinking water, site: lung, lesion: adenoma, dosed 93 weeks, study length 93 weeks): 25.8 mg/kg/day
- TD50 (mouse, strain Swiss albino, females, in drinking water, site: lung, lesion: angiosarcoma, dosed 93 weeks, study length 93 weeks): 123 mg/kg/day
- TD50 (mouse, strain Swiss albino, females, in drinking water, site: lung, lesion: several types, types named in the paper, dosed 93 weeks, study length 93 weeks): 27.5 mg/kg/day
- TD50 (mouse, strain Swiss albino, females, in drinking water, site: muscle, lesion: angiosarcoma, dosed 93 weeks, study length 93 weeks): 21.7 mg/kg/day
- TD50 (mouse, strain Swiss albino, females, in drinking water, site: subcutaneous tissue, lesion: angiosarcoma, dosed 93 weeks, study length 93 weeks): 19.9 mg/kg/day
- carcinogen call (mouse, strain Swiss albino, males, in drinking water, site: liver, lesion: several types, types named in the paper, dosed 99 weeks, study length 99 weeks): negative (inactive)
- TD50 (mouse, strain Swiss albino, males, in drinking water, site: lung, lesion: adenoma, dosed 99 weeks, study length 99 weeks): 30 mg/kg/day (inactive)
- TD50 (mouse, strain Swiss albino, males, in drinking water, site: lung, lesion: several types, types named in the paper, dosed 99 weeks, study length 99 weeks): 33.1 mg/kg/day (inactive)
